Measured values as given in patent US20130245006A1, “NOVEL INDOLIZINE DERIVATIVES, AND PREPARATION AND THERAPEUTIC USE THEREOF” (SANOFI, priority 2010, published 2013).
≈ marks a conversion by molar mass, not a printed value.

Experiment: Solubility by HPLC relative to a reference sample
Format: physicochemical
Conditions: aqueous buffer, phosphate buffer, at the pH given
Description: The evaluation of the solubility of the compounds of the invention is carried out at pH 4 (using a phosphate buffer, […]) by HPLC using an H2O/CH3CN/CH3SO3H gradient, relative to a reference sample (a dilute solution of the product to be evaluated which serves as an internal control). The solubility S results are expressed in mg/ml. Generally, the compounds of the present invention have a solubility S≧4 mg/ml at pH≧4. Among them, mention may be made of the solubilities of the following compounds in the table below: […]

Structure (SMILES)	solubility [µg/mL]
CCCCc1cc2cc(C(=O)N3CCC[C@H]3C(=O)OC)ccn2c1C(=O)c1ccc(CCCN(CCCC)CCCC)cc1 [Compound No. 2, (S)-1-{2-Butyl-3-[4-(3-dibutylamino-propyl)benzoyl]indolizine-7-carbonyl}-pyrrolidine-2-carboxylic acid methyl ester]	6300 (≈ 10.5 mM)
CCCCc1cc2cc(C(=O)N(CC)CC(=O)OC)ccn2c1C(=O)c1ccc(CCCN(CCCC)CCCC)cc1 [Compound No. 5, ({2-Butyl-3-[4-(3-dibutylaminopropyl)benzoyl]indolizine-7-carbonyl}ethylamino)acetic acid methyl ester]	5900 (≈ 10 mM)
CCCCc1cc2cc(C(=O)N(CC)CC(=O)O)ccn2c1C(=O)c1ccc(CCCN(CCCC)CCCC)cc1 [Compound No. 6, ({2-Butyl-3-[4-(3-dibutylaminopropyl)benzoyl]indolizine-7-carbonyl}ethylamino)acetic acid]	4900 (≈ 8.51 mM)
CCCCc1cc2cc(C(=O)N(CC)CCC(=O)O)ccn2c1C(=O)c1ccc(CCCN(CCCC)CCCC)cc1 [Compound No. 7, 3-({2-Butyl-3-[4-(3-dibutylaminopropyl)benzoyl]indolizine-7-carbonyl}ethylamino)propionic acid]	7200 (≈ 12.2 mM)
CCc1cc2cc(C(=O)N(CC(=O)OC)C(C)C)ccn2c1C(=O)c1ccc(CCCNC2CCCC2)cc1 [Compound No. 8, ({3-[4-(3-Cyclopentylaminopropyl)benzoyl]-2-ethylindolizine-7-carbonyl}isopropylamino)acetic acid methyl ester]	4900 (≈ 9.22 mM)
CCCCc1cc2cc(C(=O)N(CC)Cc3nnn(C)n3)ccn2c1C(=O)c1ccc(CCCN(CCCC)CCCC)cc1 [Compound No. 9, 2-Butyl-3-[4-(3-dibutylaminopropyl)benzoyl]indolizine-7-carboxylic acid ethyl(2-methyl-2H-tetrazol-5-ylmethyl)amide]	7220 (≈ 11.8 mM)
CCCCc1cc2cc(C(=O)N(CC)Cc3nc(C)no3)ccn2c1C(=O)c1ccc(CCCN(CCCC)CCCC)cc1 [Compound No. 10, 2-Butyl-3-[4-(3-dibutylaminopropyl)benzoyl]indolizine-7-carboxylic acid ethyl(3-methyl-[1,2,4]oxadiazol-5-ylmethyl)amide]	4980 (≈ 8.11 mM)
CCCCc1cc2cc(C(=O)N(CC)Cc3nnn[nH]3)ccn2c1C(=O)c1ccc(CCCN(CCCC)CCCC)cc1 [Compound No. 11, 2-Butyl-3-[4-(3-dibutylaminopropyl)benzoyl]indolizine-7-carboxylic acid ethyl(1H-tetrazole-5-ylmethyl)amide]	240 (≈ 0.4 mM)
CCc1cc2cc(C(=O)N(CC(=O)OC)C(C)C)ccn2c1C(=O)c1ccc(CCCC2(NC)CCCC2)cc1 [Compound No. 16, [(2-Ethyl-3-(4-[3-(1-methylaminocyclopentyl)propyl]benzoyl}indolizine-7-carbonyl)isopropylamino]acetic acid methyl ester]	630 (≈ 1.15 mM)
CCc1cc2cc(C(=O)N(CC)Cc3nnn(C)n3)ccn2c1C(=O)c1ccc(CCCNC(C)(C)C)cc1 [Compound No. 17, 3-[4-(3-tert-Butylaminopropyl)benzoyl]-2-ethylindolizine-7-carboxylic acid ethyl(2-methyl-2H-tetrazol-5-ylmethyl)amide]	8230 (≈ 15.5 mM)
CCc1cc2cc(C(=O)N(CC)Cc3nnn(C)n3)ccn2c1C(=O)c1ccc(CCC(C)(C)NC(C)(C)C)cc1 [Compound No. 18, 3-[4-(3-tert-Butylamino-3-methylbutyl)benzoyl]-2-ethylindolizine-7-carboxylic acid ethyl(2-methyl-2H-tetrazol-5-ylmethyl)amide]	7880 (≈ 14.1 mM)
CCc1cc2cc(C(=O)N(CC(=O)OC)C(C)C)ccn2c1C(=O)c1ccc(CCC(C)(C)NC2CCCC2)cc1 [Compound No. 19, ({3-[4-(3-Cyclopentylamino-3-methylbutyl)benzoyl]-2-ethylindolizine-7-carbonyl}isopropylamino)acetic acid methyl ester]	7200 (≈ 12.9 mM)

The next lines start with the values.

solubility [µg/mL]	Structure (SMILES)
5720 (≈ 9.47 mM)	CCCCc1cc2cc(C(=O)N(CC)[C@@H](C)C(=O)OC)ccn2c1C(=O)c1ccc(CCCN(CCCC)CCCC)cc1 (stereo in doubt) [compound 69, (S)-2-({2-Butyl-3-[4-(3-dibutylaminopropyl)benzoyl]indolizine-7-carbonyl}ethyl-amino)propionic acid methyl ester]
6170 (≈ 10.2 mM)	CCCCc1cc2cc(C(=O)N(CC)CCOC(C)C)ccn2c1C(=O)c1ccc(CCCN(CCCC)CCCC)cc1 [compound 23, 2-Butyl-3-[4-(3-dibutylaminopropyl)benzoyl]indolizine-7-carboxylic acid ethyl(2-isopropoxyethyl)amide]
1140 (≈ 1.89 mM)	CCCCc1cc2cc(C(=O)N(CC)CC(=O)OCC)ccn2c1C(=O)c1ccc(CCCN(CCCC)CCCC)cc1 [compound 26, ({2-Butyl-3-[4-(3-dibutylamino-propyl)benzoyl]indolizine-7-carbonyl}ethylamino)acetic acid ethyl ester]
2420 (≈ 4.01 mM)	CCCCc1cc2cc(C(=O)N(CC(=O)OC)C(C)C)ccn2c1C(=O)c1ccc(CCCN(CCCC)CCCC)cc1 [compound 28, ({2-Butyl-3-[4-(3-dibutylamino-propyl)benzoyl]indolizine-7-carbonyl}isopropyl-amino)acetic acid methyl ester]
2800 (≈ 5.39 mM)	CCc1cc2cc(C(=O)N(CC(=O)OC)C(C)C)ccn2c1C(=O)c1ccc(CCCNC(C)(C)C)cc1 [compound 31, ({3-[4-(3-tert-Butylaminopropyl)benzoyl]-2-ethylindolizine-7-carbonyl}isopropylamino)acetic acid methyl ester]
1570 (≈ 2.88 mM)	CCc1cc2cc(C(=O)N(CC(=O)OC)C(C)C)ccn2c1C(=O)c1ccc(CCCNC2CCCCC2)cc1 [compound 35, ({3-[4-(3-Cyclohexylaminopropyl)benzoyl]-2-ethylindolizine-7-carbonyl}isopropylamino)acetic acid methyl ester]
8980 (≈ 16.9 mM)	CCc1cc2cc(C(=O)N3CCC[C@@]3(C)C(=O)OC)ccn2c1C(=O)c1ccc(CCCNC(C)(C)C)cc1 [compound 50, (S)-1-{3-[4-(3-tert-Butylaminopropyl)benzoyl]-2-ethylindolizine-7-carbonyl}-2-methylpyrrolidine-2-carboxylic acid methyl ester]
8820 (≈ 16.5 mM)	CCc1cc2cc(C(=O)N(CC(=O)OC)C(C)C)ccn2c1C(=O)c1ccc(CCCN(CC)C(C)C)cc1 [compound 55, [(2-Ethyl-3-{4-[3-(ethylisopropylamino)propyl]benzoyl}indolizine-7-carbonyl)isopropylamino]acetic acid methyl ester]
8300 (≈ 15.2 mM)	CCCCN(CCCC)CCCc1ccc(C(=O)c2ccc3cc(C(=O)N(CC(=O)OC)C(C)C)ccn23)cc1 [compound 56, ({3-[4-(3-Dibutylamino-propyl)benzoyl]indolizine-7-carbonyl}isopropyl-amino)acetic acid methyl ester]
6300 (≈ 10.7 mM)	CCCCN(CCCC)CCCc1ccc(C(=O)c2c(CC)cc3cc(C(=O)N(CC)CC(=O)OC(C)C)ccn23)cc1 [compound 58, ({3-[4-(3-Dibutylamino-propyl)benzoyl]-2-ethylindolizine-7-carbonyl}ethyl-amino)acetic acid isopropyl ester]
5700 (≈ 9.02 mM)	CCCCc1cc2cc(C(=O)N(CC(=O)OC(C)C)C(C)C)ccn2c1C(=O)c1ccc(CCCN(CCCC)CCCC)cc1 [compound 59, ({2-Butyl-3-[4-(3-dibutylaminopropyl)-benzoyl]indolizine-7-carbonyl}-isopropylamino)acetic acid isopropyl ester]
